Data reported in PubChem BioAssay (NCI).
“And” between values parts separate entries of the source, which are not always exact repeats. Equal entries are not always repeated.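 48-hour exposure; five concentrations; linearly interpolated endpoints. Here, GI50 denotes the concentration required for 50% inhibition of growth. Definition used: TGI = concentration required for complete inhibition of growth.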

Tests used:
Experiment in all cases: NCI anticancer screen, dose series, 48 h; in the data active = GI50 below about 0.43 µM; inactive = the rest
[1] = test system: 786-0 renal
[2] = test system: A498 renal
[3] = test system: A549 NSCLC
[4] = test system: ACHN renal
[5] = test system: BT-549 breast
[6] = test system: CAKI-1 renal
[7] = test system: CCRF-CEM leukemia
[8] = test system: COLO 205 colon
[9] = test system: DU-145 prostate
[10] = test system: EKVX NSCLC
[11] = test system: HCC-2998 colon
[12] = test system: HCT-116 colon
[13] = test system: HCT-15 colon
[14] = test system: HL-60(TB) leukemia
[15] = test system: HOP-62 NSCLC
[16] = test system: HS 578T breast
[17] = test system: HT29 colon
[18] = test system: IGROV1 ovarian
[19] = test system: K-562 leukemia
[20] = test system: KM12 colon
[21] = test system: LOX IMVI melanoma
[22] = test system: M14 melanoma
[23] = test system: MALME-3M melanoma
[24] = test system: MCF7 breast
[25] = test system: MDA-MB-231 breast
[26] = test system: MDA-MB-435
[27] = test system: MDA-N
[28] = test system: MOLT-4 leukemia
[29] = test system: NCI-H226 lung
[30] = test system: NCI-H23 lung
[31] = test system: NCI-H460 lung
[32] = test system: NCI-H522 lung
[33] = test system: NCI/ADR-RES ovarian
[34] = test system: OVCAR-3 ovarian
[35] = test system: OVCAR-4 ovarian
[36] = test system: OVCAR-5 ovarian
[37] = test system: OVCAR-8 ovarian
[38] = test system: PC-3 prostate
[39] = test system: RPMI-8226 leukemia
[40] = test system: RXF 393 renal
[41] = test system: SF-268 CNS
[42] = test system: SF-295 CNS
[43] = test system: SF-539 CNS
[44] = test system: SK-MEL-2 melanoma
[45] = test system: SK-MEL-28 melanoma
[46] = test system: SK-MEL-5 melanoma
[47] = test system: SK-OV-3 ovarian
[48] = test system: SN12C renal
[49] = test system: SNB-19 CNS
[50] = test system: SNB-75 CNS
[51] = test system: SR leukemia
[52] = test system: SW-620 colon
[53] = test system: T-47D breast
[54] = test system: U251 CNS
[55] = test system: UACC-257 melanoma
[56] = test system: UACC-62 melanoma
[57] = test system: UO-31 renal
[58] = test system: TK-10 renal
[59] = test system: HOP-92 NSCLC

CN1CCN(c2ccc3[nH]c(C4=C(O)c5nc(CCl)n(C)c5C(=O)C4=O)nc3n2)CC1
18 µM: TGI [50]
50 µM and 29.1 µM: TGI [38]
19.3 µM and 30.8 µM: TGI [26]
49.3 µM: TGI [31]
50 µM and 7.68 µM: TGI [28]
16.3 µM and 4.12 µM: TGI [54]
> 50 µM and 8.97 µM: TGI [14]
16 µM and 47.9 µM: TGI [18]
15.2 µM and 7.43 µM: TGI [21]
22.1 µM: TGI [2]
36.9 µM and 40.1 µM: TGI [10]
17.4 µM and > 100 µM: TGI [27]
50 µM and 34.8 µM: TGI [45]
> 50 µM and 36.4 µM: TGI [7]
25 µM and 14.8 µM: TGI [25]
18.5 µM: TGI [24]
31.3 µM and 68.6 µM: TGI [34]
13.3 µM and > 100 µM: TGI [57]
37.1 µM and 74.4 µM: TGI [6]
20.5 µM and > 100 µM: TGI [48]
11.4 µM and 30 µM: TGI [23]
34.5 µM and 52.7 µM: TGI [36]
50 µM and 56.3 µM: TGI [42]
50 µM and 15.2 µM: TGI [39]
19.7 µM and 53.5 µM: TGI [15]
50 µM and > 100 µM: TGI [1] | TGI [3] | TGI [13] | TGI [19] | TGI [52]
50 µM: TGI [46] | TGI [51]
16.7 µM and 32.6 µM: TGI [49]
23.5 µM: TGI [44]
3.29 µM and 12.2 µM: TGI [32]
16.2 µM and 29.2 µM: TGI [37]
30.4 µM and 44.3 µM: TGI [30]
50 µM and 51.6 µM: TGI [47]
49.1 µM: TGI [41]
3.99 µM and 6.95 µM: TGI [53]
75.5 µM: TGI [16]
16.1 µM and > 100 µM: TGI [12]
21.4 µM: TGI [11]
21 µM and 35.9 µM: TGI [20]
20.1 µM and 52.2 µM: TGI [22]
inactive: GI50 [1] 6.05 µM | GI50 [4] 5.13 µM | GI50 [5] 17.4 µM | GI50 [6] 24.2 µM | GI50 [7] 15 µM | GI50 [8] 1790 nM | GI50 [9] 21.9 µM | GI50 [10] 15.9 µM | GI50 [12] 15.2 µM | GI50 [14] 2870 nM | GI50 [15] 20.7 µM | GI50 [17] 13.7 µM | GI50 [18] 24.5 µM | GI50 [19] 2840 nM | GI50 [20] 15.9 µM | GI50 [21] 3.07 µM | GI50 [22] 19.6 µM | GI50 [23] 13 µM | GI50 [25] 3.99 µM | GI50 [26] 12.6 µM | GI50 [27] 26.5 µM | GI50 [28] 2250 nM | GI50 [29] 18.3 µM | GI50 [30] 18.9 µM | GI50 [32] 3.54 µM | GI50 [33] 88.6 µM | GI50 [36] 20 µM | GI50 [37] 4.83 µM | GI50 [38] 11.7 µM | GI50 [39] 3.14 µM | GI50 [40] 3.49 µM | GI50 [42] 24 µM | GI50 [43] 2170 nM | GI50 [45] 16.1 µM | GI50 [47] 19.8 µM | GI50 [48] 16.9 µM | GI50 [49] 11.8 µM | GI50 [52] 3.61 µM | GI50 [53] 2150 nM | GI50 [54] 2030 nM | GI50 [56] 2460 nM | GI50 [57] 21.8 µM
25.9 µM and 37.1 µM: TGI [17]
19.4 µM and 7.37 µM: TGI [56]
28.1 µM and 3.62 µM: TGI [8]
9.92 µM and 16.6 µM: TGI [40]
> 100 µM: TGI [33]
36.2 µM and 37.7 µM: TGI [29]
30.7 µM and 43.1 µM: TGI [4]
22.4 µM and 67 µM: TGI [9]
31.9 µM: TGI [55]
19.3 µM and 40.4 µM: TGI [5]
44.7 µM and 33.7 µM: TGI [35]

Nc1ccc(Cc2ccc(N=Cc3ccc(OCc4cccc(COc5ccc(C=Nc6ccc(Cc7ccc(N)cc7)cc6)cc5)n4)cc3)cc2)cc1
26.6 µM: TGI [43]
68 µM: TGI [40]
> 100 µM: TGI [1] | TGI [2] | TGI [3] | TGI [4] | TGI [5] | TGI [6] | TGI [7] | TGI [8] | TGI [9] | TGI [10] | TGI [11] | TGI [12] | TGI [13] | TGI [14] | TGI [15] | TGI [16] | TGI [17] | TGI [18] | TGI [19] | TGI [20] | TGI [21] | TGI [22] | TGI [23] | TGI [24] | TGI [25] | TGI [26] | TGI [27] | TGI [28] | TGI [29] | TGI [30] | TGI [31] | TGI [32] | TGI [33] | TGI [34] | TGI [35] | TGI [36] | TGI [37] | TGI [38] | TGI [39] | TGI [41] | TGI [42] | TGI [44] | TGI [45] | TGI [46] | TGI [48] | TGI [49] | TGI [51] | TGI [52] | TGI [53] | TGI [58] | TGI [54] | TGI [55] | TGI [56] | TGI [57]
39.7 µM: TGI [50]

O=[N+]([O-])c1ccccc1N=Nc1c(O)[nH]c2ccc(S(=O)(=O)O)cc12
> 100 µM: TGI [1] | TGI [2] | TGI [3] | TGI [4] | TGI [5] | TGI [6] | TGI [8] | TGI [9] | TGI [10] | TGI [12] | TGI [13] | TGI [15] | TGI [59] | TGI [16] | TGI [17] | TGI [18] | TGI [19] | TGI [20] | TGI [21] | TGI [22] | TGI [23] | TGI [24] | TGI [25] | TGI [26] | TGI [27] | TGI [28] | TGI [29] | TGI [30] | TGI [31] | TGI [32] | TGI [33] | TGI [34] | TGI [35] | TGI [36] | TGI [37] | TGI [38] | TGI [39] | TGI [40] | TGI [41] | TGI [42] | TGI [43] | TGI [44] | TGI [45] | TGI [46] | TGI [47] | TGI [48] | TGI [49] | TGI [50] | TGI [51] | TGI [52] | TGI [53] | TGI [58] | TGI [54] | TGI [55] | TGI [56] | TGI [57]

CN(C(=O)Nc1ccc(Cl)c(Cl)c1)C1CCCC[C@@H]1N1CCCC1 (some centres not stated)
36.1 µM: TGI [22]
64.1 µM: TGI [39]
94.7 µM: TGI [41]
39.4 µM: TGI [55]
30.6 µM: TGI [46]
37.8 µM: TGI [23]
40.2 µM: TGI [56]
87.4 µM: TGI [24]
39.5 µM: TGI [29]
47.6 µM: TGI [45]
35.7 µM: TGI [8]
96.8 µM: TGI [28]
> 100 µM: TGI [1] | TGI [3] | TGI [4] | TGI [5] | TGI [6] | TGI [7] | TGI [9] | TGI [10] | TGI [12] | TGI [13] | TGI [15] | TGI [59] | TGI [17] | TGI [18] | TGI [19] | TGI [20] | TGI [21] | TGI [25] | TGI [26] | TGI [27] | TGI [30] | TGI [31] | TGI [32] | TGI [33] | TGI [34] | TGI [35] | TGI [36] | TGI [37] | TGI [38] | TGI [40] | TGI [42] | TGI [44] | TGI [47] | TGI [48] | TGI [49] | TGI [50] | TGI [51] | TGI [52] | TGI [53] | TGI [58] | TGI [54]
55.9 µM: TGI [2]
73.9 µM: TGI [16]
84.2 µM: TGI [57]
